Data set [1] concerns BaF3. Briefly: PROTAC activity at CRBN/KIF5B-RET (unknown origin) expressed in mouse BaF3 cells assessed as induction of RET degradation by measuring maximal efficacy measured after 6 hrs by Western blot analysis relative to control. In kind it is cell-based. The settings on record: Homo sapiens. Background: Immunoblotting shows a protein as a band on a membrane.
The subject of data set [2] is BaF3. Briefly: Antiproliferative activity against mouse BaF3 cells stably expressing KIF5B-RET-V804M mutant incubated for 72 hrs by CCK-8 assay. The format is functional, cell-based. The settings on record: BaF3, 72 h. On the technique in general: Formazan colour is commonly taken as a measure of viable cells.
Data set [3] in a line: Effect on RET protein level in mouse BaF3 cells stably expressing wildtype KIF5B-RET assessed as fold change at 100 nM measured after 6 hrs by Western blot analysis (reference value: 1). In kind it is functional.
A short description of data set [4]: Effect on Shc protein level in mouse BaF3 cells stably expressing wildtype KIF5B-RET assessed as fold change at 11.1 nM measured after 6 hrs by Western blot analysis. In kind it is functional.
Data set [5] in a line: Effect on RET protein level in mouse BaF3 cells stably expressing KIF5B-RET-V804M mutant assessed as fold change at 100 nM measured after 6 hrs by Western blot analysis (reference value: 1). The format is functional.
The nature of data set [6]: Effect on Shc protein level in mouse BaF3 cells stably expressing KIF5B-RET-V804M mutant assessed as fold change at 100 nM measured after 6 hrs by Western blot analysis (reference value: 1). In kind it is functional.
Data set [7] in a line: Effect on RET protein level in mouse BaF3 cells stably expressing KIF5B-RET-G810C mutant assessed as fold change at 100 nM measured after 6 hrs by Western blot analysis (reference value: 1). In kind it is functional.
Data set [8] in a line: Effect on Shc protein level in mouse BaF3 cells stably expressing KIF5B-RET-G810C mutant assessed as fold change at 11.1 nM measured after 6 hrs by Western blot analysis (reference value: 1). In kind it is functional.
Data set [9] can be described thus: Effect on Shc protein level in mouse BaF3 cells stably expressing KIF5B-RET-G810C mutant assessed as fold change at 100 nM measured after 6 hrs by Western blot analysis (reference value: 1). The format is functional.
The nature of data set [10]: Effect on Shc protein level in mouse BaF3 cells stably expressing KIF5B-RET-G810R mutant assessed as fold change at 33.3 nM measured after 6 hrs by Western blot analysis (reference value: 1). In kind it is functional.
In data set [11] the test system is BaF3. In words: Inhibition of Shc (unknown origin) phosphorylation in mouse BaF3 cells stably expression KIF5B-RET G810R mutant at 333.3 to 3000 nM measured after 6 hrs by Western blot analysis. The settings on record: Homo sapiens, dose 333.3-3000 nM. In kind it is cell-based.
A short description of data set [12]: Induction of apoptosis in mouse BaF3 cells stably expressing wildtype KIF5B-RET fusion protein assessed as early apoptotic cells at 100 nM measured after 48 hrs by Annexin V-FITC/7-AAD staining based flow cytometric analysis (reference value: 9.92 %). The format is functional. (In general: A flow cytometer gives signals particle by particle.)
The nature of data set [13]: Induction of apoptosis in mouse BaF3 cells stably expressing wildtype KIF5B-RET fusion protein assessed as late apoptotic cells at 100 nM measured after 48 hrs by Annexin V-FITC/7-AAD staining based flow cytometric analysis (reference value: 1.03 %). The format is functional.
Data set [14] in a line: Cmax in male ICR mouse at 10 mg/kg, ip measured after 24 hrs by LC-MS/MS analysis. The format is ADME, organism-based. The settings on record: in vivo.
Data set [15] relates to BaF3. In words: Antitumor activity against mouse BaF3 cells stably expressing KIF5B-RET-G810C mutant implanted in male BALB/c mouse model assessed as tumor growth inhibition at 30 mg/kg, ip administered daily for 14 days relative to control. In kind it is functional. The conditions noted are these: BaF3, 336 h, time 14 day, read-out: TGI.
Data set [16] is described as follows: Toxicity in male BALB/c mouse model implanted with mouse BaF3 cells stably expressing KIF5B-RET-G810C mutant assessed as body weight loss at 10 to 30 mg/kg, ip administered daily for 14 days. In kind it is organism-based. The settings on record: in vivo, 336 h, dose 10-30 mg/kg, time 14 day.

The term Emax denotes the greatest response seen or fitted, relative to the assay's reference. A word on the IC50: it is the concentration needed to halve the response being measured. What is called Cmax is the maximum level reached in the sampled fluid or tissue.

Activity calls are given as the source filed them. No cut-off for these calls is given here.

For the molecule `COc1ccc(CN2C3CC2CN(c2ccc(-c4cc(-c5cnn(C6CCN(CCCCCC#Cc7cccc8c7CN(C7CCC(=O)NC7=O)C8=O)CC6)c5)cn5ncc(C#N)c45)cn2)C3)cn1` (stereo unspecified), the Emax in the data set with BaF3 [1] was determined as 83%. Also, in the data set with BaF3 [2], the IC50 amounted to 40 nM. Further, the “fold change (FC)” value in data set [3] was 0.3; in [4], 1; in data set [5], 0.1; in data set [6] it was 0.9; in data set [7], 0.4; in data set [8] it was 1. The “fold change (FC)” value is reported as 1 in data set [9] and 0.9 in data set [10]. Further, in the data set with BaF3 [11], the inhibition result was “Active”. For the same molecule, the Activity in data set [12] is 33.58%; in [13], 0.99%; in [16] it was “Non-toxic”. The molecule further gave a Cmax in [14] of 68 ng/mL. Moreover, in the data set with BaF3 [15], the inhibition in vivo at 30 mg/kg came to 49.2%.
